Experimental data: patent publication US20260158002A1, “APPLICATION OF COMPOSITION CONTAINING EDARAVONE AND DEXBORNEOL IN IMPROVING OR TREATING COGNITIVE IMPAIRMENT” (NEURODAWN PHARMACEUTICAL CO., LTD., priority 2021, published 2026)

Tests used:
[1] = system: 5×FAD transgenic mice; assay: Water maze test in 5×FAD transgenic mice; assay type: in vivo, mouse; conditions: 5×FAD mice
Protocol: (§1) In the experiment, the animals were divided into 4 groups. Administration was performed on the mice in each group from 8 weeks of age. After 16 weeks of continuous daily administration, water maze and Y maze behavioral tests were performed. After the behavioral tests were completed, the animals were sacrificed, and brain slice electrophysiology and AD pathology within the brain were tested, including the test of Aβ plaques, biomarkers such as GFAP and Iba-1, p-Tau, etc.
5×FAD: edaravone group: ten 5×FAD mice were given edaravone ( ? ®) 6 mg/kg via i.p. at a dose of 10.0 mL/kg once daily.
5×FAD: composition group: ten 5×FAD mice were given 7.5 mg/kg edaravone and dexborneol concentrated solution for injection ( ? ®) (edaravone:dexborneol=4:1, containing 6 mg/kg edaravone and 1.5 mg/kg dexborneol) at a dose of 10.0 ml/kg once daily.
Experiment preparation: A constant temperature pool (120 cm in inner diameter and 50 cm in height) of a water maze was filled with clear water. The water temperature was controlled at about 18° C.-22° C. The four apexes of the pool were selected and designated as “S”, “N”, “W” and “E”, respectively. The platform was placed in the “SW” direction and 1-2 cm below the water surface. Titanium dioxide was added to the water to make the water opaque milky white.
Parameter setting: the test time was set to 1 min, and the residence time of mice on the platform was set to 2 s.
Training: The first 5 days were for the training phase of the water maze, the mice were placed in the pool in four different orientations every day, and their trajectories before boarding the platform, as well as the travel and time in each quadrant were recorded.
Testing: Testing was performed on the first day after the training was completed. During the testing, the platform was removed, the testing time was 60 s, the mouse was placed in the NE orientation, and the number of times the mouse crossed the platform and the time in the platform quadrant during the testing were recorded.
Data were expressed as Mean±SEM. […]

[2] = system: 5×FAD transgenic mice; assay: AD pathology examination (immunohistochemical test) in 5×FAD transgenic mice; assay type: in vivo, mouse; conditions: 5×FAD mice; edaravone 6 mg/kg or composition 7.5 mg/kg i.p. once daily for 16 weeks
Protocol: as §1
After the behavioral test of animals was completed, the mice were subjected to cardiac perfusion followed by brain removal, and the brain was fixed in 4% paraformaldehyde for 24 h, dehydrated with 30% sucrose, snap-frozen and embedded with an embedding medium, and sliced (thickness […]). The brain slices having the hippocampal region were selected, washed with PBS for 5 min×3 times, permeabilized with 0.2% Triton, washed with PBS for 7 min×3 times, and blocked with Blocking buffer (2.5% BSA, 0.3% Triton) for 1 h. The brain slices were placed in a primary antibody overnight at 4° C. On the second day, the brain slices in the primary antibody were taken out, washed with PBS for 5 min×3 times, placed in a second antibody, and incubated for 1 h at room temperature in the dark. The brain slices were taken out and washed with PBS for 5 min×3 times. An anti-fluorescence quencher containing DAPI was added dropwise, and the slices were mounted.
Data were expressed as Mean±SEM. Statistical analysis between groups was performed using Prism software (GraphPad, USA): One-way or Two-way ANOVA was used for comparison of two or more groups, and then Fisher's LSD test was selected for analysis. P<0.05 indicated significant difference. ##p<0.01, ###p<0.001, ####p<0.0001, comparison with WT group; *p<0.05, **p<0.01, […], ****p<0.0001, comparison with model group; & p<0.05, &&p<0.01, &&&&p<0.0001, comparison between two groups indicated.

[3] = biological target: Aβ1-42 (Homo sapiens, UniProt P05067); conditions: in vitro; concentration range of 0.156 to 5 μM; cited from earlier work
[4] = system: rat model of scopolamine-induced dementia; conditions: oral 15 mg/kg/day for 7 consecutive days; cited from earlier work
[5] = system: mouse model of AlCl3/D-galactose-induced cognitive impairment; conditions: intraperitoneal for 15 consecutive days; cited from earlier work
[6] = system: tau P301L transgenic mouse model; conditions: tau P301L mice aged 9 to 10 months and 21 months; oral with drinking water 24 mg/kg/day for 3 consecutive months; cited from earlier work
[7] = edaravone 6 mg/kg or composition 7.5 mg/kg i.p. once daily for 16 weeks

Sequence of Aβ1-42 (P05067 672-713 limits assumed): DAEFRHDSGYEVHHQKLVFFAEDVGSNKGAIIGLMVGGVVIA

## CC1=NN(c2ccccc2)C(=O)C1 [edaravone, 3-methyl-1-phenyl-2-pyrazolin-5-one]
[1]; [7]
  number of times the mouse crossed the platform in platform withdrawal test, vs solvent control: prolong the residence time in the target quadrant and the number of times the mouse crossed the platform
  residence time in the target quadrant in platform withdrawal test, vs solvent control: prolong the residence time in the target quadrant
[1]; edaravone 6 mg/kg or composition 7.5 mg/kg i.p. once daily for 16 weeks from 8 weeks of age
  escape latency in water maze hidden platform test, vs solvent control: could significantly shorten the escape latency
[2]
  astrogliosis within the brain, vs solvent control group: could significantly decrease
  hippocampal tau protein hyperphosphorylation, vs solvent control group: could significantly decrease
  microgliosis within the brain, vs solvent control group: could significantly decrease
  β-amyloid plaques within the brain, vs solvent control group: could significantly decrease
[3]
  aggregation of Aβ1-42 monomer as Aβ fibrils and disaggregation of Aβ fibrils: capable of inhibiting the aggregation of Aβ1-42 monomer as Aβ fibrils and disaggregating Aβ fibrils in a concentration-dependent manner
[4]
  scopolamine-induced spatial learning and long-term memory impairments: can improve scopolamine-induced spatial learning and long-term memory impairments
[5]
  cognitive function in water maze test and step-down test: significantly improves the cognitive function as tested by water maze test and step-down test
[6]
  cognitive function in water maze test and novel object recognition test: can significantly improve the cognitive function of the animals in water maze test and novel object recognition test
